From the METLIN SMRT retention time set (Domingo-Almenara et al. 2019)

Assay: gradient 5% acetonitrile 3 min, to 50% in 2 min, to 85% in 15 min, held 3 min, 100 µL/min
Conditions: column: Zorbax Extend-C18 2.1 x 50 mm; eluents: water / acetonitrile, 0.1% formic acid
Summary of the method: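 A Zorbax Extend-C18 column (2.1 × 50 mm, 1.8 μm) run at 100 μL/min with water and acetonitrile, both containing 0.1% formic acid, separated mixtures of ~100 pure standards. The HPLC was coupled to a quadrupole time-of-flight mass spectrometer operated in positive and negative ionization mode, with dead and dwell volumes of 40 μL and 900 μL. Each retention time was taken from a computationally picked adduct peak that was then manually inspected.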

Compound	RP-LC retention time [s]
OC(CNCc1ccc(-c2ccc(Cl)cc2Cl)o1)c1ccccc1 (centres undefined)	800
COc1cccc(CN2CCc3nn(CC4CC4)c(=O)n3CC2)n1	595
CCN(c1nc(N)c(C(=O)N=C(N)N)nc1Cl)C(C)C	779
CCCN(CC1CCOC1)S(=O)(=O)c1cccc(F)c1 (centres undefined)	850
COc1cccc(Cn2cnc3c(-c4ccc(F)cc4)csc3c2=O)c1	1050
O=C(c1cn(CC(O)c2ccccc2)nn1)N1CCN(c2ccccn2)CC1 (centres undefined)	544
CN1Cc2ccccc2-n2ccnc2C12CCN(C(=O)c1cccc(C(F)(F)F)c1)CC2	594
COC(=O)c1ccc(CSc2nnc(CNC(=O)c3ccccc3)o2)o1	683
Cc1cc(Cl)ccc1NS(=O)(=O)c1ccc2onc(C(=O)N3CCCC3)c2c1	1030
CN1C(=O)C(c2c(-c3ccc(Br)cc3)[nH]c3[nH]c(=O)[nH]c(=O)c23)c2ccccc21 (centres undefined)	721
Cn1cc(CCNC(=O)Nc2ccc3c(c2)OCCO3)c2cccnc21	639
COCc1cc(=O)n(CC(=O)Nc2ccc(OC)c(OC)c2)c(N2CCOCC2)n1	702
COc1ccc(C(=O)NC2CCN(c3ccc(=O)n(C)n3)C2)c(OC)n1 (centres undefined)	742
Cc1noc(-c2ccc(-n3cnc(C(=O)NCc4ccc(Cl)cc4)c3)nc2)n1	865
O=C(CN1CCN(c2ccccn2)CC1)N1c2ccccc2Sc2ccccc21	652
CCOc1ccccc1C1NC(=O)N(CC(=O)Nc2ccc3c(c2)CCC3)C2=C1C(=O)OC2 (centres undefined)	900
CN(C1CCOCC1)C1CCN(C(=O)CCc2nc3ccccc3[nH]2)CC1	519
CC1(C)CC(NC(=O)COc2ccc(Cl)cc2Br)CC(C)(C)N1	661
COc1ccc(-c2ncc3c(n2)CCN(C(=O)Nc2ccc(Cl)cc2)C3)cc1	978
COCc1cc(=O)n(CC(=O)N2CCN(c3ccc(F)cc3)CC2)c(N2CCOCC2)n1	819
O=C(NCCc1csc(-c2cccs2)n1)C1CCN(S(=O)(=O)c2ccccc2)CC1	889
COCCNC(=O)C1c2ccccc2C(=O)N(C)C1c1cccs1 (centres undefined)	679
Cc1cccc(C(=O)Nc2cc(-c3ccsc3)no2)c1	992

Compound	RP-LC retention time [s]
O=C(Cc1c[nH]c2ncccc12)NCc1cccc(Br)c1	647
O=C(CSc1nnc2c3sc(N4CCCC4)nc3ncn12)Nc1ccc(F)cc1	794
Cc1cc(C)cc(Nc2nc3ccncc3n(Cc3ccccc3)c2=O)c1	817
CCN(Cc1ccccc1)Cc1nc(-c2ccc(N3CCCC(C)C3)nc2)no1 (centres undefined)	1020
Cc1cccc(NC(=O)Cn2cnc(-c3nc(C)cs3)c2)c1	687
COc1ccc(N2CC(c3noc(-c4cc(Cl)ccc4OC)n3)CC2=O)cc1 (centres undefined)	963
CC1CCN(S(=O)(=O)c2ccc3c(ccc(=O)n3CC(=O)NC3CCCc4ccccc43)c2)CC1 (centres undefined)	919
Cc1ccc(NC(=O)C2CCN(S(=O)(=O)c3cn(C(C)C)cn3)CC2)c(Br)c1	838
CCc1noc(-c2cccnc2N2CCCN(Cc3cccc(C)c3)CC2)n1	690
COc1ccc(NC(=O)c2cn(-c3cc(N4CCCCC4)ncn3)cn2)cc1Cl	984
Cc1ccc(CNC(=O)N2CCC3(CC2)NC(=O)c2cccc(Cl)c2N3)cc1	773
Cc1ccccc1-c1nc2cnccn2c1NCCC(=O)NCc1ccccc1F	660
CCn1nccc1C(=O)NC1CCN(c2ncnc3c2CCC3)C1 (centres undefined)	585
O=C(NCCN1CCOCC1)c1cc2sccc2n1Cc1ccc(Cl)cc1	713
O=C(C1CCCN(c2nnc(-n3cccc3)s2)C1)N1CCN(c2ccccc2)CC1 (centres undefined)	931
CC(C)CNC(=O)c1ccc(CN2CCN(Cc3ccc(F)cc3)C(=O)C2=O)cc1	732
Cc1nnc2n1CCN(C(=O)c1cc(-c3ccccc3)n[nH]1)C2	608
CC1CCCN(C(=O)C2CCN(c3cc(N4CCCCC4)ncn3)CC2)C1 (centres undefined)	683
Cc1ccc2oc(-c3noc(C(=O)NCCC4=CCCCC4)n3)c(C)c2c1	1400
CN(C(=O)Cn1c(=O)oc2ccc(C(=O)N3CCCC3)cc21)C1CCCCC1	761
Cc1c(F)cccc1NC(=O)Nc1ccc(Nc2cc(-n3cccn3)ncn2)cc1	866
CCOC(=O)c1cn(-c2c(F)c(F)c(C#N)c(F)c2F)c2c(F)c(F)c(F)cc2c1=O	981
Cn1c(=O)c2c(ncn2CC(=O)N2CCCC(c3nc(C4CCOCC4)no3)C2)n(C)c1=O (centres undefined)	613

Compound	RP-LC retention time [s]
COc1ccc(OC)c(NC(=O)Cn2cccc(-c3nc(-c4ccc(OC)c(OC)c4)no3)c2=O)c1	810
O=C(Nc1cccc(Cl)c1)C1CCN(c2nccnc2Sc2ccccc2)CC1	1170
O=C(NCc1ccco1)c1ccc(NC(=O)C2CCC2)cc1N1CCOCC1	750
Cn1nc(-c2nc(-c3ccc(F)cc3)no2)c2c1CCN(C(=O)NC1CCCC1)C2	771
CCOC(=O)c1ccc(CNC(=O)N2CCC(c3nc4ccncc4n3C)C2)cc1 (centres undefined)	557
CCn1cc(-c2nc(C)c(C(=O)NCc3ccc(F)cc3F)s2)c2cccnc21	969
CC(C)OCCCNC(=O)c1ccc2c(=O)n(-c3ccccc3)c(N3CCCC3)nc2c1	777
CCc1cc(C2CCCN2C(=O)Nc2cccc(OC)c2)on1 (centres undefined)	835
COCCn1cc2c3c(cccc31)CN(C(=O)Nc1cc(OC)c(OC)c(OC)c1)CC2	825
CCOC(=O)N1CCN(c2ncc(S(=O)(=O)c3ccc(C)c(C)c3)c(N)n2)CC1	891
COc1ccc(C)cc1NC(=O)Cn1nc2c(Oc3cccc(F)c3)nccn2c1=O	936
COc1ccc(NC(=O)c2nc(N3CCSCC3)c3cnn(C)c3n2)cc1	814
O=C(C1CCN(c2cncnc2N2CCCC2)CC1)N1CCN(c2ccc(F)cc2)CC1	670
COc1ccc(Br)cc1-c1nnc2n(C)c3c(=O)n(C)c(=O)n(C)c3n12	641
CCCCS(=O)(=O)c1cc2c(cc1NC(=O)c1ccc(C)cc1)n(C)c(=O)n2C	955
CC(=O)c1ccc(NC(=O)c2noc3c2CCCC3)cc1	871
O=C(NCc1ccc(F)cc1)Nc1nnc(-c2ccco2)o1	706
Cc1ccc(CNC(=O)C2(CCO)CCN(Cc3ccccc3)C2)o1 (centres undefined)	656
COC(=O)c1cncn1C(C)c1ccccc1 (centres undefined)	737
CNc1nc(Nc2cn(C(C)(C)C#N)nc2C)ncc1C(F)(F)F	696
CC(C)NC(=O)N1CCC(OC2CCN(Cc3ccccc3)CC2)CC1	564
Cc1nc2ccn(Cc3cccs3)c(=O)c2cc1C(=O)NCC1CCCO1 (centres undefined)	670
Cc1ccc(-c2cn3c(CC(=O)Nc4cccc(C#N)c4)csc3n2)cc1C	855

Compound	RP-LC retention time [s]
Cc1nnc(-c2nnc(NCC3CCCCC3)c3ccccc23)o1	772
COc1ccccc1C(=O)N1CCCC(COc2ccc(C(=O)NC3CC3)cc2)C1 (centres undefined)	785
COc1ccc(N2CCN(C(=O)C3CCCN(c4ccncc4)C3)CC2)cc1 (centres undefined)	593
Cc1cc2c(cc1S(=O)(=O)N1CCCC1C(=O)N(C)C1CCCCC1)OC(C)C(=O)N2 (centres undefined)	806
COc1cc(NS(=O)(=O)c2ccc(Nc3nc(-c4ccc(C)cc4)cs3)cc2)nc(OC)n1	1100
CC(C)NC(=O)C1CCCN(C(=O)Nc2ccc(NC(=O)Nc3ccccc3F)cc2)C1 (centres undefined)	735
Cc1ccccc1NC(=O)c1cc(C)n2nc(-c3ccsc3)cc2n1	1240
CCN(CC)S(=O)(=O)c1ccc2c(c1)cc(C(=O)NCCc1c[nH]c3ccccc13)n2C	1010
O=C(CCc1csc(NS(=O)(=O)c2ccccc2)n1)Nc1nc2ccccc2s1	730
CCS(=O)(=O)Nc1ccc(-c2noc(COc3ccc(OC)cc3)n2)cc1	919
Cn1cccc1-c1noc(C2CCN(S(=O)(=O)c3ccc4c(c3)OCCO4)CC2)n1	1000
CCn1c(=O)sc2cc(S(=O)(=O)N3CCC(C(=O)NC(C)C)CC3)ccc21	749
COc1ccccc1N1CCN(CCN2C(=O)CC3(CCCC3)CC2=O)CC1	733
Cc1ncoc1C(=O)N1CCC(N2C(=O)C(OCC3CC3)C23CCOCC3)CC1 (centres undefined)	634
Cc1noc(-c2ccnc(-n3cnc(C(=O)NCC(C)C)c3)c2)n1	773
COc1ccc(C(=O)N2CCCn3cc(-c4ccccc4)nc32)cn1	532
CN1C(=O)C(CC(=O)NCc2nc3ccccc3n2C)=C2CCCCC21 (centres undefined)	600
Cc1cc(N2CCN(C)CC2)nc2ccc(NC(=S)N(C)C3CCCCC3)cc12	583
O=C(NCCc1c[nH]c2ccc(F)cc12)c1cn(-c2ccc(F)cc2)nn1	914
Cc1nc(-c2cc3ccccc3nc2N2CCN(C(=O)Cc3ccccc3)CC2)no1	934
